Results from patent US10913933B2, “Bioengineered liver constructs and methods relating thereto” (Wake Forest University Health Sciences, priority 2013, dated 2021).

System: bioengineered liver organoids
Conditions: human, 48 h
Description: For hepatocyte functional analysis, culture medium was collected after the three week incubation. The media was stored at −80° C. until it was used for analysis. For analyzing albumin synthesis, albumin ELISA assay (Bethyl Laboratories Inc.) was carried out on each samples in triplicates. The albumin concentrations were normalized per mg of DNA. The media was also analyzed in the same fashion for urea secretion using a Quantichrome™ Urea Assay Kit (BioAssay Systems, Inc.). […] After 48 hours, media samples were collected and analyzed by mass spectrometry (FIGS. 3C and 3D), and compared with standards of individual metabolites (FIGS. 3A and 3B).
In a second experiment, the liver organoids were prepared as described above in Example 1, Section A using LPC seeding and maintenance media. Alternatively, the organoids can be prepared using minimal LPC medium or hFLP medium instead. After seeding with hFLPCs, the discs were cultured for 3 weeks, with harvesting of cells at 1 week and 3 weeks for immunohistochemical and molecular analysis. Assays assessing albumin and urea synthesis and IHC analyses were performed as described above. Gene expression analyses were performed by RT-PCR after harvesting the organoids. Drug metabolism activity in the organoids was assessed after 1 week and 3 weeks of culturing. […] After 3, 6, 12, and 24 hours, media samples were collected and analyzed by mass spectrometry.

**Q.** With `CCOc1ccc2ccc(=O)oc2c1` [7-ethoxycoumarin] as the compound, how does the “Phase-1 metabolites found in media” value read?
**A.** 7-hydroxycoumarin
